Experimental data reported in patent publication US7417156B2, “Orally active, antimalarial, anticancer, artemisinin-derived trioxane dimers” (Johns Hopkins University, priority 2002, dated 2008).
Read-outs that look alike come from different tables or passages of the source.

Experiments:
[1] = test system: chloroquine-sensitive P. falciparum (NF54); assay: Antimalarial activity in vitro, [3H]hypoxanthine incorporation; assay type: cell-based
CCRF-CEM = assay: NCI 60 cell line panel screen (SRB); assay type: cell-based, human; settings: for Log10LC50 / Log10TGI50: CCRF-CEM (Leukemia); for Log10LC50: LC50: PG=−50; for Log10TGI50: TGI: PG=0
EKVX = assay: NCI 60 cell line panel screen (SRB); assay type: cell-based, human
NCI-H460 = assay: NCI 60 cell line panel screen (SRB); assay type: cell-based, human; settings: for Log10LC50 / Log10TGI50: NCI-H460 (Non-Small Cell Lung Cancer); for Log10LC50: LC50: PG=−50; for Log10TGI50: TGI: PG=0; for Log10GI50: Non-Small Cell Lung Cancer, NCI-H460
NCI-H522 = assay: NCI 60 cell line panel screen (SRB); assay type: cell-based, human; settings: for Log10TGI50: NCI-H522 (Non-Small Cell Lung Cancer), TGI: PG=0; for Log10LC50: NCI-H-522 (Non-Small Cell Lung Cancer), LC50: PG=−50
COLO 205 = assay: NCI 60 cell line panel screen (SRB); assay type: cell-based, human; settings: for Log10LC50 / Log10TGI50: COLO 205 (Colon Cancer); for Log10LC50: LC50: PG=−50; for Log10TGI50: TGI: PG=0; for Log10GI50: Colon Cancer, COLO 205
HCT-15 = assay: NCI 60 cell line panel screen (SRB); assay type: cell-based, human; settings: for Log10GI50: Colon Cancer, HCT-15; for Log10LC50 / Log10TGI50: HCT-15 (Colon Cancer); for Log10LC50: LC50: PG=−50; for Log10TGI50: TGI: PG=0
SNB-19 = assay: NCI 60 cell line panel screen (SRB); assay type: cell-based, human; settings: for Log10GI50: CNS Cancer, SNB-19; for Log10LC50 / Log10TGI50: SNB-19 (CNS Cancer); for Log10LC50: LC50: PG=−50; for Log10TGI50: TGI: PG=0
SK-MEL-2 = assay: NCI 60 cell line panel screen (SRB); assay type: cell-based, human; settings: for Log10GI50: Melanoma, SK-MEL-2; for Log10LC50: SK-MEL2 (Melanoma), LC50: PG=−50; for Log10TGI50: SK-MEL-2 (Melanoma), TGI: PG=0
UACC-257 = assay: NCI 60 cell line panel screen (SRB); assay type: cell-based, human; settings: for Log10GI50: Melanoma, UACC-257; for Log10LC50 / Log10TGI50: UACC-257 (Melanoma); for Log10LC50: LC50: PG=−50; for Log10TGI50: TGI: PG=0
OVCAR-5 = assay: NCI 60 cell line panel screen (SRB); assay type: cell-based, human; settings: for Log10LC50 / Log10TGI50: OVCAR-5 (Ovarian Cancer); for Log10LC50: LC50: PG=−50; for Log10TGI50: TGI: PG=0; for Log10GI50: Ovarian Cancer, OVCAR-5
786-0 = assay: NCI 60 cell line panel screen (SRB); assay type: cell-based, human; settings: for Log10LC50 / Log10TGI50: 786-0 (Renal Cancer); for Log10LC50: LC50: PG=−50; for Log10TGI50: TGI: PG=0; for Log10GI50: Renal Cancer, 786-0
ACHN = assay: NCI 60 cell line panel screen (SRB); assay type: cell-based, human; settings: for Log10LC50 / Log10TGI50: ACHN (Renal Cancer); for Log10LC50: LC50: PG=−50; for Log10TGI50: TGI: PG=0; for Log10GI50: Renal Cancer, ACHN
CAKI-1 = assay: NCI 60 cell line panel screen (SRB); assay type: cell-based, human; settings: for Log10LC50 / Log10TGI50: CAKI-1 (Renal Cancer); for Log10LC50: LC50: PG=−50; for Log10TGI50: TGI: PG=0; for Log10GI50: Renal Cancer, CAKI-1
MCF7 = assay: NCI 60 cell line panel screen (SRB); assay type: cell-based, human; settings: for Log10GI50: Breast Cancer, MCF7; for Log10LC50 / Log10TGI50: MCF7 (Breast Cancer); for Log10LC50: LC50: PG=−50; for Log10TGI50: TGI: PG=0
HS 578T = assay: NCI 60 cell line panel screen (SRB); assay type: cell-based, human; settings: for Log10GI50: Breast Cancer, HS 578T; for Log10LC50 / Log10TGI50: HS 578T (Breast Cancer); for Log10LC50: LC50: PG=−50; for Log10TGI50: TGI: PG=0
HL-60(TB) = assay: NCI 60 cell line panel screen (SRB); assay type: cell-based, human
MOLT-4 = test system: MOLT-4
Method in brief: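 Sulforhodamine B staining of TCA-fixed cellular protein was the read-out, following 48 h compound exposure at 37 °C. Plates were pre-incubated 24 h before dosing, and five concentrations (routinely 10^−4 to 10^−8 molar) were tested in duplicate with time-zero and untreated controls. Values derive from test/control percentage growth relative to time-zero mass.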

[2] = Table I, NF54 strain, read-out: IC50

Compound: CC1CCC2C(C)C(CC(COC(=O)c3cc[n+]([O-])cc3)CC3OC4OC5(C)CCC6C(C)CCC(C3C)C46OO5)OC3OC4(C)CCC1C32OO4 (stereo not drawn) [Compound 13, bis-trioxane primary alcohol isonicotinate N-oxide]
- IC50 [1]: sub-nanomolar
- IC50 [1, 2]: 0.53 nM
- Log10LC50 (CCRF-CEM): >−4.30 log10M
- Log10TGI50 (CCRF-CEM): >−4.30 log10M
- Log10LC50 (EKVX; EKVX (Non-Small Cell Lung Cancer), LC50: PG=−50): −4.59 log10M
- Log10TGI50 (EKVX; EKVX (Non-Small Cell Lung Cancer), TGI: PG=0): −5.08 log10M
- Log10GI50 (EKVX; Non-Small Cell Lung Cancer, EKVX): −8.19
- Log10LC50 (NCI-H460): −4.36 log10M
- Log10TGI50 (NCI-H460): −4.92 log10M
- Log10GI50 (NCI-H460): <−8.30
- Log10TGI50 (NCI-H522): −4.60 log10M
- Log10LC50 (NCI-H522): >−4.30 log10M
- Log10LC50 (COLO 205): >−4.30 log10M
- Log10TGI50 (COLO 205): >−4.30 log10M
- Log10GI50 (COLO 205): <−8.30
- Log10GI50 (HCT-15): <−8.30
- Log10LC50 (HCT-15): −4.81 log10M
- Log10TGI50 (HCT-15): −8.19 log10M
- Log10GI50 (SNB-19): −5.08
- Log10LC50 (SNB-19): >−4.30 log10M
- Log10TGI50 (SNB-19): >−4.30 log10M
- Log10GI50 (SK-MEL-2): −5.12
- Log10LC50 (SK-MEL-2): >−4.30 log10M
- Log10TGI50 (SK-MEL-2): >−4.30 log10M
- Log10GI50 (UACC-257): −5.15
- Log10LC50 (UACC-257): >−4.30 log10M
- Log10TGI50 (UACC-257): −4.65 log10M
- Log10LC50 (OVCAR-5): −4.66 log10M
- Log10TGI50 (OVCAR-5): −5.14 log10M
- Log10GI50 (OVCAR-5): <−8.30
- Log10LC50 (786-0): −4.43 log10M
- Log10TGI50 (786-0): −4.94 log10M
- Log10GI50 (786-0): −7.81
- Log10LC50 (ACHN): −4.79 log10M
- Log10TGI50 (ACHN): −6.57 log10M
- Log10GI50 (ACHN): <−8.30
- Log10LC50 (CAKI-1): −4.66 log10M
- Log10TGI50 (CAKI-1): −5.11 log10M
- Log10GI50 (CAKI-1): −7.36
- Log10GI50 (MCF7): <−8.30
- Log10LC50 (MCF7): −4.44 log10M
- Log10TGI50 (MCF7): −5.03 log10M
- Log10GI50 (HS 578T): <−8.30
- Log10LC50 (HS 578T): −4.35 log10M
- Log10TGI50 (HS 578T): −5.00 log10M

Compound: CC1CCC2C(C)C(CC(O)(CO)CC3OC4OC5(C)CCC6C(C)CCC(C3C)C46OO5)OC3OC4(C)CCC1C32OO4 (stereo not drawn) [Compound 5, bis-trioxane vicinal diol]
- IC50 [1]: below one nM
- antimalarial potency in vitro relative to artemisinin [1]: 10 times
- IC50 [1, 2]: 0.59 nM
- Log10LC50 (CCRF-CEM): >−4.00 log10M
- Log10TGI50 (CCRF-CEM): >−4.00 log10M
- Log10GI50 (CCRF-CEM; Leukemia, CCRF-CEM): −4.71
- Log10LC50 (HL-60(TB); HL-60(TB) (Leukemia), LC50: PG=−50): >−4.00 log10M
- Log10GI50 (HL-60(TB); Leukemia, HL-60(TB)): <−8.00
- concentration for cytotoxicity (percentage growth −50) (MOLT-4): greater than 10^−4 M
- Log10GI50 (MOLT-4; Leukemia, MOLT-4): <−8.00
- Log10LC50 (MOLT-4; MOLT-4 (Leukemia), LC50: PG=−50): >−4.00 log10M
- Log10TGI50 (MOLT-4; MOLT-4 (Leukemia), TGI: PG=0): >−4.00 log10M
- Log10LC50 (NCI-H460): >−4.00 log10M
- Log10TGI50 (NCI-H460): −4.40 log10M
- Log10GI50 (NCI-H460): −5.02
- Log10TGI50 (NCI-H522): −4.59 log10M
- Log10LC50 (NCI-H522): −4.17 log10M
- Log10GI50 (NCI-H522; Non-Small Cell Lung Cancer, NCI-H522): −7.33
- Log10LC50 (COLO 205): −4.15 log10M
- Log10TGI50 (COLO 205): −4.87 log10M
- Log10GI50 (COLO 205): <−8.00
- Log10GI50 (HCT-15): −5.28
- Log10LC50 (HCT-15): −4.03 log10M
- Log10TGI50 (HCT-15): −4.53 log10M
- Log10GI50 (SNB-19): −4.82
- Log10LC50 (SNB-19): >−4.00 log10M
- Log10TGI50 (SNB-19): −4.34 log10M
- Log10GI50 (SK-MEL-2): −4.94
- Log10LC50 (SK-MEL-2): −4.12 log10M
- Log10TGI50 (SK-MEL-2): −4.53 log10M
- Log10GI50 (UACC-257): <−8.00
- Log10LC50 (UACC-257): −4.36 log10M
- Log10TGI50 (UACC-257): −4.90 log10M
- Log10LC50 (OVCAR-5): >−4.00 log10M
- Log10TGI50 (OVCAR-5): −4.33 log10M
- Log10GI50 (OVCAR-5): −4.78
- Log10LC50 (786-0): >−4.00 log10M
- Log10TGI50 (786-0): −4.36 log10M
- Log10GI50 (786-0): −4.87
- Log10LC50 (ACHN): 4.47 log10M
- Log10TGI50 (ACHN): <−8.00 log10M
- Log10GI50 (ACHN): <−8.00
- Log10LC50 (CAKI-1): −4.13 log10M
- Log10TGI50 (CAKI-1): −4.54 log10M
- Log10GI50 (CAKI-1): −4.94
- Log10GI50 (MCF7): <−8.00
- Log10LC50 (MCF7): −4.22 log10M
- Log10TGI50 (MCF7): −4.88 log10M
- Log10GI50 (HS 578T): −4.72
- Log10LC50 (HS 578T): >−4.00 log10M
- Log10TGI50 (HS 578T): −4.08 log10M
